Reference: patent US20210038607A1, “OXADIAZOLYLTHIOPHENE DERIVATIVES USEFUL AS HISTONE DEACETYLASE INHIBITORS” (Karus Therapeutics Limited, priority 2018, published 2021)

Experiments:
Human HDAC4 = target: T1, Human HDAC4 (Homo sapiens, UniProt P56524); experiment: HDAC4 biochemical assay, class IIa-specific substrate; settings: read-out: HDAC Isoform IC50 (nM) 4
T1 construct: amino acids 627-1085 with N-terminal GST tag; GST (N); host or cells: baculovirus expression system
Procedure, shortened: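 GST-tagged human HDAC4 (aa 627-1085, baculovirus) at 0.004 ng/ul was incubated 30 min at room temperature with 50 μM class IIa-specific substrate BOC-Lys(trifluoroacetyl)-AMC in Tris-HCl pH 8.0 buffer with BSA, 1% DMSO. Developer then released AMC, read at 360/460 nm.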

[1] = target: T2, Complex of human HDAC3 and human NCOR2 (Homo sapiens, UniProt O15379); experiment: HDAC3 biochemical assay, AMC-labeled peptide substrate; settings: read-out: HDAC Isoform IC50 (nM) 3
T2 construct: full length with C-terminal His tag, MW=49.7 kDa; His (C); host or cells: baculovirus expression system (co-expressed)
T2 sequence (O15379 whole entry, canonical isoform): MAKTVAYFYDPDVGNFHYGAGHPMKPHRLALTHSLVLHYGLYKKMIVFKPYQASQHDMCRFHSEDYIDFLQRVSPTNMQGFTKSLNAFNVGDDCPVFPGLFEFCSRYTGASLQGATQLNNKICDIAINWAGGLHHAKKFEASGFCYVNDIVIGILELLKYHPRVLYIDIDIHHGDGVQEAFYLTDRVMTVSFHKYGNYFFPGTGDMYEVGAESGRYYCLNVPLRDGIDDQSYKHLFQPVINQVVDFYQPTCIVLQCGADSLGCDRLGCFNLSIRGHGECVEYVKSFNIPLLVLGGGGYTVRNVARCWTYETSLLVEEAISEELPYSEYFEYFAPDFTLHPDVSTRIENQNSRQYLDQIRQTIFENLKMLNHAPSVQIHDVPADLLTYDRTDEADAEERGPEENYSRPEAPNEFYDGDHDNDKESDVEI
T2 sequence (Q9Y618 395-489 partner limits assumed): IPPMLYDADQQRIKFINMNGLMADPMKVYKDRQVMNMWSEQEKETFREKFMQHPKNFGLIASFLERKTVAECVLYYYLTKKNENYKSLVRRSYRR
Method: (§1) Activity against all zinc-dependent HDACs 1 to 11 was assessed by using an acetylated AMC-labeled peptide substrate. The substrate RHKK(Ac)AMC was used for HDAC1, HDAC2, HDAC3, HDAC6 and HDAC10; the substrate used for HDAC8 was RHK(Ac)K(Ac)AMC. Activity against the class IIa HDACs (HDAC4, 5, 7, 9) and HDAC11 was determined using a class IIa-specific substrate, BOC-Lys(trifluoroacetyl)-AMC (“Trifluoroacetyl Lysine”; see Lahm et al, 2007, PNAS, 104, 17335-17340). All assays were based on the AMC-labeled substrate and developer combination.
(§2) The protocol involved a two-step reaction: first, the substrate with the acetylated lysine side chain is incubated with a sample containing HDAC activity, to produce the deacetylated products, which are then digested in the second step by the addition of developer to produce the fluorescent signal proportional to the amount of deacetylated substrates.
Complex of human HDAC3 (GenBank Accession No. NM_003883), full length with C-terminal His tag, MW=49.7 kDa, and human NCOR2 (amino acid 395-489) (GenBank Accession No. NM_006312), N-terminal GST tag, MW=37.6 kDa, co-expressed in baculovirus expression system.
(§3) Assay Buffer: 50 mM Tris-HCl, pH8.0, 137 mM NaCl, 2.7 mM KCl, 1 mM MgC2. Before use, 1 mg/mL BSA and DMSO are added.
HDAC3: 0.1 ng/ul HDAC3 and 50 μM HDAC substrate are in the reaction buffer with 1% DMSO final. Incubate for 1 hour at 30° C.
(§4) Stage 1: Deacetylation of substrate by incubation of HDAC enzymes with compounds
(§5) Stage 2: Development by addition of Developer to digest the deacetylated substrate, and generate the fluorescent colour; Detection: 360/460 Ex/Em

Human HDAC8 = target: T3, Human HDAC8 (Homo sapiens, UniProt Q9BY41); experiment: HDAC8 biochemical assay, AMC-labeled peptide substrate; settings: read-out: HDAC Isoform IC50 (nM) 8
T3 construct: full length with C-terminal His tag, MW=42.6 kDa; His (C); host or cells: baculovirus expression system
T3 sequence (Q9BY41 1-377): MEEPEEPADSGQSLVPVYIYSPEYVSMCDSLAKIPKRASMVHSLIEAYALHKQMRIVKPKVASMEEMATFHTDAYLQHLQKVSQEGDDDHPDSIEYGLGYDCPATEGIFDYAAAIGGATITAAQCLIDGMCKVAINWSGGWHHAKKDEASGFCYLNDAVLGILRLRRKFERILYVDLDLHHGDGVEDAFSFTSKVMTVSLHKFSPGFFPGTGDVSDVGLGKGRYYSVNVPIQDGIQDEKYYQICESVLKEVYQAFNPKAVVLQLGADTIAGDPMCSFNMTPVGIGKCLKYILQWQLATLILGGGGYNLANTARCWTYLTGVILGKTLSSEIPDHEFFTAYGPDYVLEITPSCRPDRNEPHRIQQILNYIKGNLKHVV
Method: as §1, §2
Human HDAC8 (GenBankAccession No. NM_018486), full length with C-terminal His tag, MW=42.6 kDa, expressed in a baculovirus expression system.
as §3
HDAC8: 1 ng/ul HDAC8 and 100 µM HDAC8 substrate are in the reaction buffer with 1% DMSO final. Incubate for 2 hours at 30° C.
as §4, §5

T1 sequence (P56524 627-1084 limits assumed): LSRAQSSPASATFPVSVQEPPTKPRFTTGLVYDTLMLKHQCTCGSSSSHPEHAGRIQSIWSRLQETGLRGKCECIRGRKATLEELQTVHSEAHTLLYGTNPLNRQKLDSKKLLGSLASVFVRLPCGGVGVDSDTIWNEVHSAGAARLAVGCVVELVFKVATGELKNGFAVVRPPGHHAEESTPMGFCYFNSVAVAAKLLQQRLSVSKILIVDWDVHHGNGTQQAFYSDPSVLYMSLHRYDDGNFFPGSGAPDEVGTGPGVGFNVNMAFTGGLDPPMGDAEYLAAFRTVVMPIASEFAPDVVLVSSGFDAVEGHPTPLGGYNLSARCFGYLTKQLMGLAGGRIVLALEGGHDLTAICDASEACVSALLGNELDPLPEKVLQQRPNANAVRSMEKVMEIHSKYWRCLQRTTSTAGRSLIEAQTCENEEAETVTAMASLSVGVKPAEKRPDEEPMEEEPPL

IC50 (Human HDAC4) [nM]	IC50 [1] [nM]	IC50 (Human HDAC8) [nM]	SMILES
≤ 500	> 10000	≤ 10000	Nc1cnnc(N(Cc2ccc(-c3noc(C(F)(F)F)n3)s2)c2cnccn2)c1 [Example FL, N3-(Pyrazin-2-yl)-N3-({5-[5-(trifluoromethyl)-1,2,4-oxadiazol-3-yl]thiophen-2-yl}methyl)pyridazine-3,5-diamine]
≤ 10000	> 10000	≤ 10000	COc1cncc(N(Cc2ccc(-c3noc(C(F)(F)F)n3)s2)c2cnccn2)n1 [Example BQ, 6-Methoxy-N-(pyrazin-2-yl)-N-({5-[5-(trifluoromethyl)-1,2,4-oxadiazol-3-yl]thiophen-2-yl}methyl)pyrazin-2-amine]
≤ 10000	> 10000	≤ 10000	FC(F)(F)c1nc(-c2ccc(CN(c3cnccn3)c3cc(N4CCCC4)cnn3)s2)no1 [Example FQ, N-(Pyrazin-2-yl)-5-(pyrrolidin-1-yl)-N-({5-[5-(trifluoromethyl)-1,2,4-oxadiazol-3-yl]thiophen-2-yl}methyl)pyridazin-3-amine]
≤ 10000	> 10000	≤ 10000	Fc1ccnc(N(Cc2ccc(-c3noc(C(F)(F)F)n3)s2)c2cnccn2)c1 [Example AG, N-(4-Fluoropyridin-2-yl)-N-({5-[5-(trifluoromethyl)-1,2,4-oxadiazol-3-yl]thiophen-2-yl}methyl)pyrazin-2-amine]
≤ 1000	> 10000	≤ 10000	CC(C)OC1CN(C(=O)c2cnnc(N(Cc3ccc(-c4noc(C(F)(F)F)n4)s3)c3cnccn3)c2)C1 [Example GC, 5-[3-(Propan-2-yloxy)azetidine-1-carbonyl]-N-(pyrazin-2-yl)-N-({5-[5-(trifluoromethyl)-1,2,4-oxadiazol-3-yl]thiophen-2-yl}methyl)pyridazin-3-amine]
≤ 1000	> 10000	≤ 10000	Cc1cnnc(N(Cc2ccc(-c3noc(C(F)(F)F)n3)s2)c2cnccn2)c1 [Example GN, 5-Methyl-N-(pyrazin-2-yl)-N-({5-[5-(trifluoromethyl)-1,2,4-oxadiazol-3-yl]thiophen-2-yl}methyl)pyridazin-3-amine]
≤ 10000	> 10000	≤ 10000	COc1cnc(N(Cc2ccc(-c3noc(C(F)(F)F)n3)s2)c2cnccn2)cn1 [Example BI, 5-Methoxy-N-(pyrazin-2-yl)-N-({5-[5-(trifluoromethyl)-1,2,4-oxadiazol-3-yl]thiophen-2-yl}methyl)pyrazin-2-amine]
≤ 10000	> 10000	≤ 10000	CC1(c2cnnc(N(Cc3ccc(-c4noc(C(F)(F)F)n4)s3)c3cnccn3)c2)COC1 [Example GT, 5-(3-Methyloxetan-3-yl)-N-(pyrazin-2-yl)-N-({5-[5-(trifluoromethyl)-1,2,4-oxadiazol-3-yl]thiophen-2-yl}methyl)pyridazin-3-amine]
≤ 10000	> 10000	≤ 10000	O=C(O)c1ccc(N(Cc2sc(-c3noc(C(F)(F)F)n3)cc2F)c2cnccn2)nn1 [Example EZ, 6-[({3-Fluoro-5-[5-(trifluoromethyl)-1,2,4-oxadiazol-3-yl]thiophen-2-yl}methyl)(pyrazin-2-yl)amino]pyridazine-3-carboxylic acid]
≤ 10000	> 10000	≤ 10000	O=C(c1cnnc(N(Cc2ccc(-c3noc(C(F)(F)F)n3)s2)c2cnccn2)c1)N1CCC(F)(F)CC1 [Example FY, 5-(4,4-Difluoropiperidine-1-carbonyl)-N-(pyrazin-2-yl)-N-({5-[5-(trifluoromethyl)-1,2,4-oxadiazol-3-yl]thiophen-2-yl}methyl)pyridazin-3-amine]
≤ 10000	≤ 10000	≤ 10000	O=C(O)c1cnnc(N(Cc2sc(-c3noc(C(F)(F)F)n3)cc2F)c2cnccn2)c1 [Example FA, 6-[({3-fluoro-5-[5-(trifluoromethyl)-1,2,4-oxadiazol-3-yl]thiophen-2-yl}methyl)(pyrazin-2-yl)amino]pyridazine-4-carboxylic acid]
≤ 1000	> 10000	≤ 10000	FC(F)(F)c1nc(-c2ccc(CN(c3cnccn3)c3cc(CN4CCCC4)ccn3)s2)no1 [Example GG, N-{4-[(Pyrrolidin-1-yl)methyl]pyridin-2-yl}-N-({5-[5-(trifluoromethyl)-1,2,4-oxadiazol-3-yl]thiophen-2-yl}methyl)pyrazin-2-amine]
≤ 10000	> 10000	≤ 10000	FC(F)(F)c1nc(-c2ccc(CN(c3cnccn3)c3ncccn3)s2)no1 [Example AS, N-(Pyrimidin-2-yl)-N-({5-[5-(trifluoromethyl)-1,2,4-oxadiazol-3-yl]thiophen-2-yl}methyl)pyrazin-2-amine]
≤ 10000	> 10000	≤ 10000	OC1(c2cnnc(N(Cc3ccc(-c4noc(C(F)(F)F)n4)s3)c3cnccn3)c2)COC1 [Example GW, 3-{6-[(Pyrazin-2-yl)({5-[5-(trifluoromethyl)-1,2,4-oxadiazol-3-yl]thiophen-2-yl}methyl)amino]pyridazin-4-yl}oxetan-3-ol]
≤ 10000	> 10000	≤ 10000	CC(F)(F)c1cnnc(N(Cc2ccc(-c3noc(C(F)(F)F)n3)s2)c2cnccn2)c1 [Example GU, 5-(1,1-Difluoroethyl)-N-(pyrazin-2-yl)-N-({5-[5-(trifluoromethyl)-1,2,4-oxadiazol-3-yl]thiophen-2-yl}methyl)pyridazin-3-amine]
≤ 10000	> 10000	≤ 10000	C[C@H]1CCCN1C(=O)c1cnnc(N(Cc2ccc(-c3noc(C(F)(F)F)n3)s2)c2cnccn2)c1 [Example GY, 5-[(2S)-2-Methylpyrrolidine-1-carbonyl]-N-(pyrazin-2-yl)-N-({5-[5-(trifluoromethyl)-1,2,4-oxadiazol-3-yl]thiophen-2-yl}methyl)pyridazin-3-amine]
≤ 10000	> 10000	≤ 10000	O=C(c1cnnc(N(Cc2ccc(-c3noc(C(F)(F)F)n3)s2)c2cnccn2)c1)N1CC2CCC(C1)O2 [Example GA, 5-{8-Oxa-3-azabicyclo[3.2.1]octane-3-carbonyl}-N-(pyrazin-2-yl)-N-({5-[5-(trifluoromethyl)-1,2,4-oxadiazol-3-yl]thiophen-2-yl}methyl)pyridazin-3-amine]
≤ 10000	> 10000	≤ 10000	FC(F)(F)c1cncc(N(Cc2ccc(-c3noc(C(F)(F)F)n3)s2)c2cnccn2)n1 [Example BR, N-(Pyrazin-2-yl)-6-(trifluoromethyl)-N-({5-[5-(trifluoromethyl)-1,2,4-oxadiazol-3-yl]thiophen-2-yl}methyl)pyrazin-2-amine]
≤ 10000	> 10000	≤ 10000	CN(C(=O)c1cnnc(N(Cc2ccc(-c3noc(C(F)(F)F)n3)s2)c2cnccn2)c1)S(C)(=O)=O [Example GE, N-Methanesulfonyl-N-methyl-6-[(pyrazin-2-yl)({5-[5-(trifluoromethyl)-1,2,4-oxadiazol-3-yl]thiophen-2-yl}methyl)amino]pyridazine-4-carboxamide]
≤ 10000	> 10000	≤ 10000	FC(F)(F)c1nc(-c2ccc(CN(c3cnccn3)c3cc(-c4ccccn4)cnn3)s2)no1 [Example GM, N-(Pyrazin-2-yl)-5-(pyridin-2-yl)-N-({5-[5-(trifluoromethyl)-1,2,4-oxadiazol-3-yl]thiophen-2-yl}methyl)pyridazin-3-amine]
